In US12240840B2, “Amide-substituted heterocyclic compounds for the treatment of conditions related to the modulation of IL-12, IL-23 and/or IFN-alpha” (BRISTOL-MYERS SQUIBB COMPANY, priority 2018, dated 2025):
pIC50: −log10 of the molar value.

test system: IFNα-induced pSTAT5 (pY694) in CD3 positive cells of human whole blood; assay: IFNα-Induced STAT Phosphorylation in Human Whole Blood; assay type: cell-based; details: Homo sapiens, 1 h compound incubation, 1000 U/mL recombinant human IFNα A/D for 15 min, pSTAT5 in CD3 positive population, read-out: Human WB IFNα-Induced Stat Phosph. (IC50)
Outline: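 Read-out is median fluorescence intensity of pSTAT5 (pY694) in the CD3-positive gate, by flow cytometry after fix/lyse and permeabilization. Before that, whole human blood anticoagulated with EDTA or ACD-A received compound for an hour and 1000 U/mL IFNα A/D for 15 min.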

Row | pIC50 | Structure (SMILES)
1 | 6.37 | [2H]C([2H])([2H])NC(=O)c1nnc(NC(=O)C2CC2)cc1Nc1cccc(-c2noc(CCC(=O)N3CCOCC3)n2)c1OC [Example 25]
2 | 6.66 | [2H]C([2H])([2H])NC(=O)c1nnc(Nc2ccc(OCC)nn2)cc1Nc1cc(F)cc(-c2cc(C(C)(C)O)n(C)n2)c1OC [Example 545]
3 | 6.80 | [2H]C([2H])([2H])NC(=O)c1nnc(NC(=O)C2CC2)cc1Nc1cccc(-c2noc(CN3CCCC3=O)n2)c1OC [Example 79]
4 | 7.52 | [2H]C([2H])([2H])NC(=O)c1nnc(NC(=O)C2CC2)cc1Nc1cccc(-c2noc(CO)n2)c1OC [Example 69]
5 | 6.72 | [2H]C([2H])([2H])NC(=O)c1nnc(NC(=O)C2CC2)cc1Nc1cccc(-c2nc(C)c(C(=O)N3CCC(N4CCCC4)CC3)s2)c1OC [Example 361]
6 | 6.17 | [2H]C([2H])([2H])NC(=O)c1nnc(NC(=O)C2CC2)cc1Nc1cccc(-c2ncc(CNC(C)=O)s2)c1OC [Example 261]
7 | 7.05 | [2H]C([2H])([2H])NC(=O)c1nnc(NC(=O)C2CC2)cc1Nc1cccc(-c2cnn(CC(=O)NCC)n2)c1OC [Example 427]
8 | 6.74 | [2H]C([2H])([2H])NC(=O)c1nnc(Nc2ccc(C)nn2)cc1Nc1cccc(-c2ncc(CO)s2)c1OC [Example 393]
9 | 6.82 | [2H]C([2H])([2H])NC(=O)c1cnc(NC(=O)C2CC2)cc1Nc1cccc(-c2nc(CN3CCCC3)no2)c1OC [Example 215]
10 | 7.10 | [2H]C([2H])([2H])NC(=O)c1nnc(NC(=O)C2CC2)cc1Nc1cccc(-c2ncc(C(=O)N3CCC(N4CCN(CCO)CC4)CC3)s2)c1OC [Example 342]
11 | 6.89 | [2H]C([2H])([2H])NC(=O)c1nnc(Nc2cnn(C)n2)cc1Nc1cccc(-c2ncc(C(=O)N(C)C)s2)c1OC [Example 381]
12 | 6.57 | [2H]C([2H])([2H])NC(=O)c1nnc(NC(=O)C2CC2)cc1Nc1cccc(-c2ccn(CCNC(C)=O)n2)c1OC [Example 468]
13 | 5.62 | [2H]C([2H])([2H])NC(=O)c1nnc(NC(=O)C2CC2)cc1Nc1cccc(-c2nc(CN(C)C(=O)OC(C)(C)C)no2)c1OC [Example 167]
14 | 6.40 | [2H]C([2H])([2H])NC(=O)c1nnc(Nc2cc(C(C)(C)O)ccn2)cc1Nc1cc(F)cc(-c2cc(C(C)(C)O)n(C)n2)c1OC [Example 547]
15 | 7.22 | [2H]C([2H])([2H])NC(=O)c1nnc(NC(=O)C2CC2)cc1Nc1cccc(-c2nc(C)c(C(=O)N(C)C)s2)c1OC [Example 367]
16 | 7.15 | [2H]C([2H])([2H])NC(=O)c1nnc(NC(=O)C2CC2)cc1Nc1cccc(-c2ncc(C(=O)NC3CCCN(C)C3)s2)c1OC (stereo not shown) [Example 337]
17 | 7.40 | [2H]C([2H])([2H])NC(=O)c1nnc(NC(=O)C2CC2)cc1Nc1cccc(-c2ncc(C(=O)NCC(C)(C)CN(C)C)s2)c1OC [Example 339]
18 | 6.82 | [2H]C([2H])([2H])c1c(NC(=O)C2CC2)nnc(C(N)=O)c1Nc1cccc(-c2nc(CN3CCN(C(C)=O)CC3)no2)c1OC [Example 120, 4-((3-(3-((4-acetylpiperazin-1-yl)methyl)-1,2,4-oxadiazol-5-yl)-2-methoxyphenyl)amino)-6-(cyclopropanecarboxamido)-trideuteromethylpyridazine-3-carboxamide]
19 | 6.55 | [2H]C([2H])([2H])NC(=O)c1nnc(NC(=O)C2CC2)cc1Nc1cccc(-c2noc(C(C)(C)O)n2)c1OC [Example 73]
20 | 5.28 | [2H]C([2H])([2H])NC(=O)c1nnc(NC(=O)C2CC2)cc1Nc1cccc(-c2nc([C@@H](COC(C)(C)C)NC(=O)OC(C)(C)C)no2)c1OC [Example 219]

Row | pIC50 | Structure (SMILES)
21 | 6.85 | [2H]C([2H])([2H])NC(=O)c1nnc(NC(=O)C2CC2)cc1Nc1cccc(-c2nc([C@H](N)[C@H](C)O)no2)c1OC [Example 204]
22 | 6.77 | [2H]C([2H])([2H])NC(=O)c1nnc(NC(=O)C2CC2)cc1Nc1cccc(-c2noc(C(CCC)C(=O)NCCOC)n2)c1OC (stereo not shown) [Example 43]
23 | 7.52 | [2H]C([2H])([2H])NC(=O)c1nnc(NC(=O)C2CC2)cc1Nc1cccc(-c2ncc(C(=O)NC3CCC(N(CC)CC)CC3)s2)c1OC (stereo not shown) [Example 319]
24 | < 5.00 | [2H]C([2H])([2H])NC(=O)c1nnc(NC(=O)C2CC2)cc1Nc1cccc(-c2nc(/C=C/c3ccccc3)no2)c1OC [Example 236]
25 | 7.68 | COc1c(Nc2cc(NC(=O)C3CC3)nnc2C(N)=O)cccc1-c1noc(CN2CCOCC2)n1 [Example 8]
26 | 6.77 | [2H]C([2H])([2H])NC(=O)c1nnc(NC(=O)C2CC2)cc1Nc1cccc(-c2noc(C3(O)CC3)n2)c1OC [Example 74]
27 | 6.64 | [2H]C([2H])([2H])NC(=O)c1cnc(NC(=O)CC)cc1Nc1cccc(-c2noc(COC)n2)c1OC [Example 88]
28 | 6.92 | [2H]C([2H])([2H])NC(=O)c1nnc(NC(=O)C2CC2)cc1Nc1cccc(-c2noc(CN3CCNCC3)n2)c1OC [Example 35]
29 | 5.62 | [2H]C([2H])([2H])NC(=O)c1nnc(NC(=O)C2CC2)cc1Nc1cccc(-c2cnn(CCNC(=O)C3(C#N)CC3)n2)c1OC [Example 437]
30 | 5.70 | [2H]C([2H])([2H])NC(=O)c1nnc(NC(=O)C2CC2)cc1Nc1cccc(-c2noc(C(C)(C)C(=O)N3CCOCC3)n2)c1OC [Example 27]
31 | 7.15 | [2H]C([2H])([2H])NC(=O)c1nnc(NC(=O)C2CC2)cc1Nc1cccc(-c2noc(CCS(C)(=O)=O)n2)c1OC [Example 78]
32 | 7.10 | [2H]C([2H])([2H])NC(=O)c1cnc(NC(=O)C2CC2)cc1Nc1cccc(-c2cnn(CCN)n2)c1OC [Example 442]
33 | 6.36 | [2H]C([2H])([2H])NC(=O)c1cnc(NC(=O)C2CC2)cc1Nc1cccc(-c2cnn(CCNC(C)=O)n2)c1OC [Example 439]
34 | 6.49 | [2H]C([2H])([2H])NC(=O)c1cnc(NC(=O)C2CC2)cc1Nc1cccc(-c2nc(COCc3ccccc3)no2)c1OC [Example 216]
35 | 6.19 | [2H]C([2H])([2H])NC(=O)c1nnc(NC(=O)C2CC2)cc1Nc1cccc(-c2cc(C(=O)NCCN(C)C)n(C)n2)c1OC [Example 536]
36 | 7.22 | [2H]C([2H])([2H])NC(=O)c1nnc(NC(=O)C2CC2)cc1Nc1cccc(-c2cc(C(=O)N3CCN(C(C)C)CC3)n(C)n2)c1OC [Example 531]
37 | 7.00 | [2H]C([2H])([2H])NC(=O)c1nnc(NC(=O)C2CC2)cc1Nc1cccc(-c2ncc(C(=O)N3CCOCC3)s2)c1OC [Example 268]
38 | 6.29 | [2H]C([2H])([2H])NC(=O)c1nnc(NC(=O)C2CC2)cc1Nc1cc(F)cc(-c2nc(CN3CCOCC3)no2)c1OC [Example 230]
39 | 7.30 | [2H]C([2H])([2H])NC(=O)c1nnc(NC(=O)C2CC2)cc1Nc1cccc(-c2nc(CN3CC4CN(S(C)(=O)=O)CC4C3)no2)c1OC (stereo not shown) [Example 235]
40 | 5.21 | [2H]C([2H])([2H])NC(=O)c1nnc(NC(=O)C2CC2)cc1Nc1cccc(-c2nc([C@H](COC(C)(C)C)NC(=O)OC(C)(C)C)no2)c1OC [Example 197]

Row | pIC50 | Structure (SMILES)
41 | 6.41 | [2H]C([2H])([2H])NC(=O)c1nnc(NC(=O)C2CC2)cc1Nc1cccc(-c2cc(C(=O)N3CCC3)n(C)n2)c1OC [Example 538]
42 | 7.00 | [2H]C([2H])([2H])NC(=O)c1nnc(NC(=O)C2CC2)cc1Nc1cccc(-c2ncc(C(=O)NCCC(=O)OC)s2)c1OC [Example 290]
43 | 6.96 | [2H]C([2H])([2H])NC(=O)c1nnc(NC(=O)C2CC2)cc1Nc1cccc(-c2noc(CN3CCC(O)CC3)n2)c1OC [Example 83]
44 | 5.71 | [2H]C([2H])([2H])NC(=O)c1nnc(NC(=O)C2CC2)cc1Nc1cccc(-c2nc(C3(NC(=O)COC)CC3)no2)c1OC [Example 149]
45 | 7.92 | COc1c(Nc2cc(NC(=O)C3CC3)nnc2C(N)=O)cccc1-c1noc(CN2CCN(S(C)(=O)=O)CC2)n1 [Example 40]
46 | 7.30 | [2H]C([2H])([2H])NC(=O)c1cnc(Nc2ccc(OC)nn2)cc1Nc1cc(F)cc(-c2cc(C(=O)N(C)C)n(C)n2)c1OC [Example 551]
47 | 5.97 | [2H]C([2H])([2H])NC(=O)c1nnc(NC(=O)C2CC2)cc1Nc1cccc(-c2nc([C@H](CO)NC(C)=O)no2)c1OC [Example 199]
48 | 6.12 | [2H]C([2H])([2H])NC(=O)c1nnc(NC(=O)C2CC2)cc1Nc1cccc(-c2nc([C@H](COC(C)=O)NC(C)=O)no2)c1OC [Example 200]
49 | 7.15 | [2H]C([2H])([2H])NC(=O)c1nnc(NC(=O)C2CC2)cc1Nc1cccc(-c2ncc(C(=O)NCC(C)N3CCCCC3)s2)c1OC (stereo not shown) [Example 349]
50 | 5.82 | [2H]C([2H])([2H])NC(=O)c1nnc(NC(=O)C2CC2)cc1Nc1cccc(-c2cc(C(=O)NC(C)C)n(C)n2)c1OC [Example 535]
51 | 6.49 | [2H]C([2H])([2H])NC(=O)c1nnc(NC(=O)C2CC2)cc1Nc1cccc(-c2nc(C)c(C(=O)NC3CCC(N(C)C)CC3)s2)c1OC (stereo not shown) [Example 365]
52 | < 5.00 | [2H]C([2H])([2H])NC(=O)c1nnc(NC(=O)C2CC2)cc1Nc1cccc(-c2nc(CC(C)C)no2)c1OC [Example 122]
53 | 7.68 | COc1c(Nc2cc(NC(=O)C3CC3)nnc2C(N)=O)cccc1-c1noc([C@@H]2C[C@@H](O)CN2S(C)(=O)=O)n1 [Example 11]
54 | 7.05 | COc1c(Nc2cc(NC(=O)C3CC3)nnc2C(N)=O)cccc1-c1noc([C@@H](C)N(C)S(C)(=O)=O)n1 [Example 52]
55 | 6.15 | [2H]C([2H])([2H])NC(=O)c1nnc(NC(=O)C2CC2)cc1Nc1cccc(-c2cc(C(=O)NCCCN(C)C)n(C)n2)c1OC [Example 537]
56 | 7.15 | [2H]C([2H])([2H])NC(=O)c1nnc(NC(=O)C2CC2)cc1Nc1cccc(-c2ncc(C(=O)NC[C@H]3CCCN3CC)s2)c1OC [Example 330]
57 | 6.09 | COc1c(Nc2cc(N)nnc2C(N)=O)cccc1-c1noc(CN2CCOCC2)n1 [Example 107]
58 | 6.21 | [2H]C([2H])([2H])NC(=O)c1cnc(NC(=O)C2CC2)cc1Nc1cccc(-c2nc(CCOC(C)(C)C)no2)c1OC [Example 227]
